Data as given in patent publication US8278054B2, “Diagnosis of metal allergy through cytokine release by T-cells in vitro” (Mabtech AB, priority 2001, dated 2012).
“And” between values parts separate entries of the source, which are not always exact repeats. Equal entries are not always repeated.

How the values were obtained:
[1] = test system: ACD patients and control individuals; assay: Epicutaneous patch test; type: in vivo, human; conditions: 48 h
Method: Prior to the patch testing of the control group, blood samples for ELISpot analysis were taken to avoid an impact of the patch test on the ELISpot analysis. Epicutaneous patch tests using 5% NiSO4 in petrolatum was applied for 48 h whereafter the reaction, sites were inspected. […] All ACD patients were selected based on previous patch tests giving scores of 2+ or 3+ having 3+ as the highest score.
Prior to the patch testing of the control group, blood samples for ELISpot analysis were taken to avoid an impact of the patch test on the ELISpot analysis. Epicutaneous patch tests were applied for 48 h whereafter the reaction sites were inspected. […] This patient also gave a negative result in the ELISpot assay (see Table 2).

[2] = test system: IL-13 producing PBMC; assay: IL-13 ELISpot assay; type: cell-based, human; conditions: for IL-13 production in response to NiCl2 (ELISpot): 50 μM NiCl2, FIG. 1
Source text: (§1) Blood from ACD patients or control individuals were obtained by venipuncture and collected in sterile heparinised glass vials. Peripheral blood mononuclear cells (PBMC) were separated by density gradient centrifugation over Ficoll-Hypaque. After separation, PBMC were washed twice in medium (RPMI 1640 containing glutamin, Hepes, Penicillin/Streptomycin and 10% fetal calf serum (FCS)) and used fresh for experiments. Alternatively, PBMC were frozen in 90% FCS and 10% dimethylsulfoxide and kept in liquid nitrogen until tested. Prior to being tested, frozen cells were thawed at 37° C. and medium was added dropwise whereafter the cells were washed twice with medium.
(§2) The PBMC were stimulated with various concentrations of NiCl2 and both proliferative responses and cytokine responses were analysed. NiCl2 at a stock concentration of 50 mM was mixed with medium and incubated for more than five minutes before being added to cells. PBMC diluted to a cell concentration of 4-6×10^6 cells/ml were mixed with an equal volume of NiCl2 diluted in medium resulting in a final concentration of 2×10^6 cells/ml and NiCl2 at concentrations ranging from 10-100 μM. The cell suspensions were incubated in plastic vials for 4 h at 37° C. in a humidified incubator. In parallel with incubating PBMC with NiCl2, PBMC at the same concentration were incubated with mitogen (1 μg phytohemagglutinin (PHA)/ml), control antigens (10 μg tetanus toxoid (TT) or purified protein derivative (PPD)/ml) or in the absence of stimuli.
(§3) Matched pairs of monoclonal antibodies (mAb) to human IL-4, IL-5 or IL-13 were used for the ELISpot assays (Mabtech AB, Stockholm, Sweden). […]
(§4) Ninetysix-well plates with polyvinylidene difluoride membranes (MAIPS45-10, Millipore) were treated with 100 μl of 70% EtOH for 2-10 min followed by six washes with 200 μl sterile deionized H2O. […] After rinsing the plates with tap water, the plates were dried and spots were counted using a light microscope. […]

[3] = test system: IL-4 producing PBMC; assay: IL-4 ELISpot assay; type: cell-based, human; conditions: for IL-4 producing cells/200 000 PBMC after stimulation with 50 μM NiCl2 / IL-4 producing cells/200 000 PBMC, 50-0 / IL-4 producing cells/200 000 PBMC after stimulation with 100 μM NiCl2 / IL-4 producing cells/200 000 PBMC, 100-0: one line per subject; for IL-4 producing cells/200 000 PBMC, 50-0: 50 μM NiCl2 after subtraction of spontaneous spots; for IL-4 producing cells/200 000 PBMC, 100-0: 100 μM NiCl2 after subtraction of spontaneous spots
Source text: as §1, §2
Matched pairs of monoclonal antibodies (mAb) to human IL-4, IL-5 or IL-13 were used for the ELISpot assays (Mabtech AB, Stockholm, Sweden). For each pair, one mAb was used as a capture mAb: 82.4 (IL-4), TRFK5 (IL-5) and IL13-I (IL-13) and the other for detection, 12.1 (IL-4), 5A10 (IL-5) and IL13-II (IL-13). MAbs used for detection were biotinylated.
Ninetysix-well plates with polyvinylidene difluoride membranes (MAIPS45-10, Millipore) were treated with 100 μl of 70% EtOH for 2-10 min followed by six washes with 200 μl sterile deionized H2O. To each well, 100 μl of capture mAb at a concentration of 15 μg/ml in phosphate-buffered saline (PBS) was added and incubated over night at +4° C. The plates were washed three times with 200 μl or sterile PBS and three times with 200 μl medium containing 2% FCS. PBMC incubated for 4 h with or without stimuli in test tubes were suspended and 100 μl cell suspension (2×10^5 cells) was added to each well. After an additional incubation of 44 h, the wells were emptied and washed six times with 200 μl PBS. Biotinylated detection mAb at 1 μg/ml in PBS containing 0.5% FCS was added at a volume of 100 μl and incubated for 2 h at room temperature whereafter the wells were washed six times with PBS. Subsequently, 100 μl of SA-ALP (Streptavidin-Alkaline phosphatase, Mabtech) at 50 ng/ml in PBS with 0.5% FCS was added to each well and incubated for 1 h followed by washing in PBS six times before developing the wells with 100 μl nitroblue tetraxolium (NBT)/5-bromo-4-chloro-3-indolyl phosphate (BCIP) substrate (Sigma) for approximately 1 h. After rinsing the plates with tap water, the plates were dried and spots were counted using a light microscope.
(§5) Matched pairs of monoclonal antibodies (mAb) to human IL-4, IL-5, IL-13 or IFN-γ were used for ELISpot assays (Mabtech AB, Stockholm, Sweden). As in Example 4 above, for each pair, one mAb was used as a capture mAb and the other for detection. MAbs used for detection were biotinylated.
Ninetysix-well plates with polyvinylidene difluoride membranes (MAIPS45-10, Millipore) were treated with 100 μl of 70% EtOH for 2-10 min followed by six washes with 200 μl sterile deionized H2O. To each well, 100 μl of capture mAb at a concentration of 15 μg/ml in phosphate-buffered saline (PBS) was added and incubated over night at +4° C. The plates were washed three times with 200 μl or sterile PBS and three times with 200 μl medium containing 2% FCS. […]

[4] = test system: IL-5 producing PBMC; assay: IL-5 ELISpot assay; type: cell-based, human; conditions: for IL-5 production in response to NiCl2 (ELISpot): 50 μM NiCl2, FIG. 1
Source text: as §1, §2, §3, §4

[5] = test system: PBMC; assay: Proliferative response of PBMC (stimulation index); type: cell-based, human; conditions: one line per subject
Source text: as §1
as §2, with “In parallel with incubating PBMC with NiCl2, PBMC at the same concentration were incubated with mitogen (1 μg phytohemagglutinin (PHA)/ml), control antigens (10 μg tetanus toxoid (TT) or purified protein derivative (PPD)/ml) or in the absence of stimuli.” left out

[6] = test system: IFN-γ producing PBMC; assay: IFN-γ ELISpot assay; type: cell-based, human; conditions: Kathon stimulation, spontaneous spots subtracted; allergic individuals, one line per patient
Method: Peripheral blood mononuclear cells (PBMC) were obtained from Kathon (methylisothiazolinone) allergy patients or control individuals as described in Example 2.
The PBMC were stimulated with Kathon (methylisothiazolinone) and cytokine responses were analysed.
as §5
Ninetysix-well plates with polyvinylidene difluoride membranes (MAIPS45-10, Millipore) were treated with 100 μl of 70% EtOH for 2-10 min followed by six washes with 200 μl sterile deionized H2O. To each well, 100 μl of capture mAb at a concentration of 15 μg/ml in phosphate-buffered saline (PBS) was added and incubated over night at +4° C. The plates were washed three times with 200 μl or sterile PBS and three times with 200 μl medium containing 2% FCS. PBMC incubated for 4 h with or without stimuli in test tubes were suspended and 100 μl cell suspension (2×10^5 cells) was added to each well. After an additional incubation of 44 h, the wells were emptied and washed six times with 200 μl PBS. […] After rinsing the plates with tap water, the plates were dried and spots were counted using a light microscope.

[7] = PBMC from allergic individuals (n=8)
[8] = PBMC from non-allergic individuals (n=7)
[9] = Kathon stimulation, spontaneous spots subtracted, allergic individuals, one line per patient

SMILES: O=S(=O)([O-])[O-].[Ni+2] [NiSO4]
- Patch test reactivity ([1]; 5% NiSO4 in petrolatum, non-allergic group, one line per subject): None of the controls responded positively

SMILES: [Cl][Ni][Cl] [NiCl2]
- IL-13 production in response to NiCl2 (ELISpot) [2, 7]: shown to produce
- IL-13 production in response to NiCl2 (ELISpot) [2, 8]: this was not seen
- IL-4 ELISpot mean values, allergic versus non-allergic group ([3]; 10 μM NiCl2, data not shown): higher mean values for the allergic group
- IL-4 producing cells/200 000 PBMC after stimulation with 50 μM NiCl2 ([3]; allergic group): 137 cells/200 000 PBMC and 48 cells/200 000 PBMC and 19 cells/200 000 PBMC and 26 cells/200 000 PBMC and 127 cells/200 000 PBMC and 27 cells/200 000 PBMC and 60 cells/200 000 PBMC and 9 cells/200 000 PBMC and 8 cells/200 000 PBMC and 13 cells/200 000 PBMC and 23 cells/200 000 PBMC
- IL-4 producing cells/200 000 PBMC after stimulation with 50 μM NiCl2 ([3]; non-allergic group): 3 cells/200 000 PBMC (2×) and 4 cells/200 000 PBMC (2×) and 9 cells/200 000 PBMC and 7 cells/200 000 PBMC and 1 cells/200 000 PBMC and 2 cells/200 000 PBMC (2×)
- IL-4 producing cells/200 000 PBMC, 50-0 ([3]; allergic group): 134 cells/200 000 PBMC and 47 cells/200 000 PBMC and 17 cells/200 000 PBMC and 21 cells/200 000 PBMC (2×) and 118 cells/200 000 PBMC and 25 cells/200 000 PBMC and 55 cells/200 000 PBMC and 5 cells/200 000 PBMC and 7 cells/200 000 PBMC and 12 cells/200 000 PBMC
- IL-4 producing cells/200 000 PBMC, 50-0 ([3]; non-allergic group): 1 cells/200 000 PBMC and 2 cells/200 000 PBMC and 4 cells/200 000 PBMC and 0 cells/200 000 PBMC (6×)
- IL-4 producing cells/200 000 PBMC after stimulation with 100 μM NiCl2 ([3]; allergic group): 21 cells/200 000 PBMC and 28 cells/200 000 PBMC (2×) and 122 cells/200 000 PBMC and 30 cells/200 000 PBMC and 63 cells/200 000 PBMC and 16 cells/200 000 PBMC and 18 cells/200 000 PBMC and 24 cells/200 000 PBMC
- IL-4 producing cells/200 000 PBMC after stimulation with 100 μM NiCl2 ([3]; non-allergic group): 5 cells/200 000 PBMC and 8 cells/200 000 PBMC (2×) and 4 cells/200 000 PBMC (2×) and 14 cells/200 000 PBMC and 1 cells/200 000 PBMC and 6 cells/200 000 PBMC
- IL-4 producing cells/200 000 PBMC, 100-0 ([3]; allergic group): 19 cells/200 000 PBMC and 23 cells/200 000 PBMC (2×) and 113 cells/200 000 PBMC and 28 cells/200 000 PBMC and 58 cells/200 000 PBMC and 12 cells/200 000 PBMC and 17 cells/200 000 PBMC and 25 cells/200 000 PBMC
- IL-4 producing cells/200 000 PBMC, 100-0 ([3]; non-allergic group): 3 cells/200 000 PBMC (2×) and 1 cells/200 000 PBMC (2×) and 5 cells/200 000 PBMC and 2 cells/200 000 PBMC and 0 cells/200 000 PBMC and 4 cells/200 000 PBMC
- IL-5 production in response to NiCl2 (ELISpot) [4, 7]: shown to produce
- IL-5 production in response to NiCl2 (ELISpot) [4, 8]: this was not seen
- Proliferation (SI) (50 μM NiCl2) ([5]; PBMC of allergic group): higher in the group of allergic individuals and 15.9 and 8.4 and 15.4 and 16.2 and 11.8 and 24.9 and 11.0 and 31.6 and 44.8 and 10.1 and 92.2
- Proliferation (SI) (50 μM NiCl2) ([5]; PBMC of non-allergic group): 3.1 (2×) and 0.9 and 1.2 and 2.0 and 3.3 and 6.8 and 5.1 and 8.2

SMILES: Cn1sccc1=O [Kathon, methylisothiazolinone]
- Number of responding cells (spots) per 200,000 cells, IL-13 [2, 9]: 51 spots per 200,000 cells and 50 spots per 200,000 cells and 0 spots per 200,000 cells and 19 spots per 200,000 cells
- Patch test response ([1]; Kathon (methylisothiazolinone), non-allergic controls): None of the controls responded positively
- Number of responding cells (spots) per 200,000 cells, IL-4 [3, 9]: 14 spots per 200,000 cells and 21 spots per 200,000 cells and 0 spots per 200,000 cells and 3 spots per 200,000 cells
- Number of responding cells (spots) per 200,000 cells, IL-5 [4, 9]: 3 spots per 200,000 cells and 5 spots per 200,000 cells and 0 spots per 200,000 cells and 2 spots per 200,000 cells
- Number of responding cells (spots) per 200,000 cells, IFN-gamma [6]: 39 spots per 200,000 cells and 113 spots per 200,000 cells and 0 spots per 200,000 cells and 21 spots per 200,000 cells
